Measured values published in US7687457B2, “Cyclic molecular framework and derivatives thereof” (The University of Queensland, priority 1999, dated 2010).
Where a SMILES comes first, the peptide text is derived from it.

Test system: erythrocytes
Test: haemolytic activity, lysis of erythrocytes
Type: cell-based
Conditions: haemolysis; read-out: concentration causing 50% lysis of erythrocytes

For `CC[C@H](C)[C@@H]1NC(=O)CNC(=O)[C@H](CC(N)=O)NC(=O)[C@H](Cc2ccc(O)cc2)NC(=O)[C@@H]2CSSC[C@@H]3NC(=O)[C@@H]4CCCN4C(=O)[C@H]([C@@H](C)CC)NC(=O)[C@H](Cc4ccc(O)cc4)NC(=O)[C@H](C(C)C)NC(=O)[C@@H]4CSSC[C@H](NC(=O)[C@H](CO)NC(=O)[C@H](CSSC[C@H](NC(=O)[C@@H]5CCCN5C1=O)C(=O)N[C@@H](C)C(=O)N[C@@H](CCC(=O)O)C(=O)N[C@@H](CO)C(=O)N4)NC(=O)CNC(=O)[C@H](CC(C)C)NC(=O)[C@H](CC(C)C)NC(=O)[C@H](C)NC(=O)[C@H]([C@@H](C)O)NC(=O)[C@H](C(C)C)NC(=O)[C@H]([C@@H](C)O)NC3=O)C(=O)N[C@@H](CO)C(=O)N[C@@H](CC(N)=O)C(=O)N[C@@H](CCCNC(=N)N)C(=O)N[C@@H](C(C)C)C(=O)N2` [cycloviolacin 01] (HELM PEPTIDE1{A.E.S.C.V.Y.I.P.C.T.V.T.A.L.L.G.C.S.C.S.N.R.V.C.Y.N.G.I.P.C}$PEPTIDE1,PEPTIDE1,4:R3-19:R3|PEPTIDE1,PEPTIDE1,9:R3-24:R3|PEPTIDE1,PEPTIDE1,17:R3-30:R3|PEPTIDE1,PEPTIDE1,1:R1-30:R2$$$V2.0), the EC50 was ~20 µM.
